Source: patent US11939314B2, “Quinolin-2-one derivatives” (MERCK PATENT GMBH, priority 2016, dated 2024)
pIC50: −log10 of the molar value.

Legend:
PDGFRalpha(V561D) = target: T1, PDGFRalpha(V561D) (Homo sapiens, UniProt P16234, V561D); experiment: PDGFRalpha(V561D) assay; assay type: biochemical; conditions: recombinant human PDGFRalpha aa 550-end, 200 μM ATP, 1.4E-06 means 1.4×10^−6, read-out: Inhibition (IC50) of PDGFRα (V561D)
T1 construct: recombinant human PDGFRalpha, amino acids 550end containing the V561 D mutation; 6His (N)
T1 sequence (P16234 550-1089 V561D): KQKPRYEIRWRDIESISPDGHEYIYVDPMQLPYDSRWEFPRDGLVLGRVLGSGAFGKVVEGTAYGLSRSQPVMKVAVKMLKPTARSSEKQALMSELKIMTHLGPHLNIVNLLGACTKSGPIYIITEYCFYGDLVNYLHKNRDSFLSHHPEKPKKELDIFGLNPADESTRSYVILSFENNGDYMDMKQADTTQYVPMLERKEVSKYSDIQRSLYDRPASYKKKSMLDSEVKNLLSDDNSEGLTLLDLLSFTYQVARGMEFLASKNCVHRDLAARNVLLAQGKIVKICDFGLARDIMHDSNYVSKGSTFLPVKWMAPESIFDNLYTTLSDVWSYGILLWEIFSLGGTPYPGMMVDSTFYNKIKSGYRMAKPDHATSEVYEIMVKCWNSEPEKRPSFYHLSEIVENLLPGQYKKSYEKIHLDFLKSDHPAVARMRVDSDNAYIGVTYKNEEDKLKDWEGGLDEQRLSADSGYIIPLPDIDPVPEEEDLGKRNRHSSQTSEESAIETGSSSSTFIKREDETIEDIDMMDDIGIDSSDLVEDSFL
Outline: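 Radiometric filter-binding assay: substrate phosphorylation by recombinant N-His-tagged human PDGFRα 550-end V561D was quenched with 3% phosphoric acid after 40 min at room temperature, then counted.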

c-Kit(V654A) = target: T2, c-Kit(V654A) (Homo sapiens, UniProt P10721, V654A); experiment: c-Kit(V654A) assay; assay type: biochemical; conditions: recombinant human c-Kit aa 544-end, 200 μM ATP, 1.4E-06 means 1.4×10^−6, read-out: Inhibition (IC50) of c-KIT (V654A)
T2 construct: amino acids 544-end containing the V654A mutation; GST (N)
T2 sequence (P10721 544-976 V654A): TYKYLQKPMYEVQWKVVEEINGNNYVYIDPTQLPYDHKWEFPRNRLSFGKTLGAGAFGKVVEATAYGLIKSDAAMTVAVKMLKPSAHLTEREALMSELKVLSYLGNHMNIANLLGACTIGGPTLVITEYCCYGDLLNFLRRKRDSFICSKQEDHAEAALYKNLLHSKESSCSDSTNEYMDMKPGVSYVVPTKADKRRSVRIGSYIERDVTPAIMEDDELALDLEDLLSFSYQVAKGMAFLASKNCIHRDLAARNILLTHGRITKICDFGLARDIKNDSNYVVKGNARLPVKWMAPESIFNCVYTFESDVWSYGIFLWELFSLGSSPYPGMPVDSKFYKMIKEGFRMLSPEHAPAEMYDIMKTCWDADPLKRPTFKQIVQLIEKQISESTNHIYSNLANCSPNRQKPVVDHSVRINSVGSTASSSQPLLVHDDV
Outline: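 Radiometric filter-binding read-out: substrate 33P incorporation counted by scintillation after P30 filtermat washes in 75 mM phosphoric acid and methanol. Enzyme: N-GST recombinant human c-Kit aa 544-end carrying V654A.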

Row | pIC50 (PDGFRalpha(V561D)) | pIC50 (c-Kit(V654A)) | SMILES
1 | 7.04 | 7.31 | CO[C@@H]1CCCN(C(=O)c2ccc(-n3cc(-c4cc5cc(F)ccc5[nH]c4=O)nn3)cc2)C1 [A194, 6-fluoro-3-{1-[4-((R)-3-methoxy-piperidine-1-carbonyl)-phenyl]-1H-[1,2,3]triazol-4-yl}-1H-quinolin-2-one]
2 | 7.03 | 7.17 | CO[C@H]1CCCN(C(=O)c2ccc(-n3cc(-c4cc5cc(F)ccc5[nH]c4=O)nn3)cc2)C1 [A195, 6-fluoro-3-{1-[4-((S)-3-methoxy-piperidine-1-carbonyl)-phenyl]-1H-[1,2,3]triazol-4-yl}-1H-quinolin-2-one]
3 | 6.96 | 7.36 | CCN(CC)CCNC(=O)c1ccc(-n2cc(-c3cc4cc(F)ccc4[nH]c3=O)nn2)cc1 [A196, N-(2-diethylamino-ethyl)-4-[4-(6-fluoro-2-oxo-1,2-dihydro-quinolin-3-yl)-[1,2,3]triazol-1-yl]-benzamide]
4 | 7.49 | 7.55 | O=C(c1ccc(-n2cc(-c3cc4cc(F)ccc4[nH]c3=O)nn2)cc1)N1CCC[C@H]1CO [A197, 6-fluoro-3-{1-[4-((S)-2-hydroxymethyl-pyrrolidine-1-carbonyl)-phenyl]-1H-[1,2,3]triazol-4-yl}-1H-quinolin-2-one]
5 | 7.66 | 7.80 | COC[C@@H]1CCN(C(=O)c2ccc(-n3cc(-c4cc5cc(F)ccc5[nH]c4=O)nn3)cc2)C1 [A199, 6-fluoro-3-{1-[4-((R)-3-methoxymethyl-pyrrolidine-1-carbonyl)-phenyl]-1H-[1,2,3]triazol-4-yl}-1H-quinolin-2-one]
6 | 6.85 | 6.74 | COC[C@@H]1CCN(C(=O)c2ccc(-n3cc(-c4cc5cc(F)c(F)cc5[nH]c4=O)nn3)cc2)C1 [A200, 6,7-difluoro-3-{1-[4-((R)-3-methoxymethyl-pyrrolidine-1-carbonyl)-phenyl]-1H-[1,2,3]triazol-4-yl}-1H-quinolin-2-one]
7 | 7.04 | 7.01 | COC[C@H]1CCN(C(=O)c2ccc(-n3cc(-c4cc5cc(F)c(F)cc5[nH]c4=O)nn3)cc2)C1 [A201, 6,7-difluoro-3-{1-[4-((S)-3-methoxymethyl-pyrrolidine-1-carbonyl)-phenyl]-1H-[1,2,3]triazol-4-yl}-1H-quinolin-2-one]
8 | 7.80 | 7.24 | COC[C@H]1CCN(C(=O)c2ccc(-n3cc(-c4cc5cc(F)ccc5[nH]c4=O)nn3)cc2)C1 [A202, 6-fluoro-3-{1-[4-((S)-3-methoxymethyl-pyrrolidine-1-carbonyl)-phenyl]-1H-[1,2,3]triazol-4-yl}-1H-quinolin-2-one]
9 | 6.31 | 7.44 | CCN(CC)CCOC1CCN(C(=O)c2ccc(-n3cc(-c4cc5cc(F)ccc5[nH]c4=O)nn3)cc2)C1 (centres unmarked) [A203, 3-(1-{4-[3-(2-diethylamino-ethoxy)-pyrrolidine-1-carbonyl]-phenyl}-1H-[1,2,3]triazol-4-yl)-6-fluoro-1H-quinolin-2-one]
10 | 6.96 | 7.26 | O=C(c1ccc(-n2cc(-c3cc4cc(F)ccc4[nH]c3=O)nn2)cc1)N1CCC2(CCOC2)C1 (centres unmarked) [A204, 6-fluoro-3-{1-[4-(2-oxa-7-aza-spiro[4.4]nonane-7-carbonyl)-phenyl]-1H-[1,2,3]triazol-4-yl}-1H-quinolin-2-one]
11 | 7.03 | 7.44 | O=C(c1ccc(-n2cc(-c3cc4cc(F)ccc4[nH]c3=O)nn2)cc1)N1CCC2(COC2)C1 [A205, 6-fluoro-3-{1-[4-(2-oxa-6-aza-spiro[3.4]octane-6-carbonyl)-phenyl]-1H-[1,2,3]triazol-4-yl}-1H-quinolin-2-one]
12 | 7.32 | 7.62 | O=C(c1ccc(-n2cc(-c3cc4cc(F)ccc4[nH]c3=O)nn2)cc1)N1CCC(CO)C1 (centres unmarked) [A206, 6-fluoro-3-{1-[4-(3-hydroxymethyl-pyrrolidine-1-carbonyl)-phenyl]-1H-[1,2,3]triazol-4-yl}-1H-quinolin-2-one]
13 | 6.51 | 7.28 | CN(C)C1CCN(C(=O)c2ccc(-n3cc(-c4cc5cc(F)ccc5[nH]c4=O)nn3)cc2)C1 (centres unmarked) [A207, 3-{1-[4-(3-dimethylamino-pyrrolidine-1-carbonyl)-phenyl]-1H-[1,2,3]triazol-4-yl}-6-fluoro-1H-quinolin-2-one]
14 | 6.74 | 7.74 | O=C(c1ccc(-n2cc(-c3cc4cc(F)ccc4[nH]c3=O)nn2)cc1)N1CCC(N2CCC(O)CC2)C1 (centres unmarked) [A208, 6-fluoro-3-(1-{4-[3-(4-hydroxy-piperidin-1-yl)-pyrrolidine-1-carbonyl]-phenyl}-1H-[1,2,3]triazol-4-yl)-1H-quinolin-2-one]
15 | 6.24 | 7.28 | O=C(c1ccc(-n2cc(-c3cc4cc(F)ccc4[nH]c3=O)nn2)cc1)N1CCC(OCCN2CCOCC2)C1 (centres unmarked) [A209, 6-fluoro-3-(1-{4-[3-(2-morpholin-4-yl-ethoxy)-pyrrolidine-1-carbonyl]-phenyl}-1H-[1,2,3]triazol-4-yl)-1H-quinolin-2-one]
16 | 6.52 | 7.34 | COCCOC[C@@H]1CCN(C(=O)c2ccc(-n3cc(-c4cc5cc(F)ccc5[nH]c4=O)nn3)cc2)C1 [A210, 6-fluoro-3-(1-{4-[(R)-3-(2-methoxy-ethoxymethyl)-pyrrolidine-1-carbonyl]-phenyl}-1H-[1,2,3]triazol-4-yl)-1H-quinolin-2-one]
17 | 7.07 | 6.72 | COCCN(C)C(=O)c1ccc(-n2cc(-c3cc4cc(F)ccc4[nH]c3=O)nn2)cc1 [A211, 4-[4-(6-fluoro-2-oxo-1,2-dihydro-quinolin-3-yl)-[1,2,3]triazol-1-yl]-N-(2-methoxy-ethyl)-N-methyl-benzamide]
18 | 6.80 | 5.89 | COCCN(C)C(=O)c1ccc(-n2cc(-c3cc4cc(F)c(F)cc4[nH]c3=O)nn2)cc1 [A212, 4-[4-(6,7-difluoro-2-oxo-1,2-dihydro-quinolin-3-yl)-[1,2,3]triazol-1-yl]-N-(2-methoxy-ethyl)-N-methyl-benzamide]
19 | 7.43 | 7.19 | O=C(c1ccc(-n2cc(-c3cc4cc(F)ccc4[nH]c3=O)nn2)cc1)N1CCOC[C@H]1CO [A213, 6-fluoro-3-{1-[4-((R)-3-hydroxymethyl-morpholine-4-carbonyl)-phenyl]-1H-[1,2,3]triazol-4-yl}-1H-quinolin-2-one]
20 | 7.10 | 7.14 | O=C(c1ccc(-n2cc(-c3cc4cc(F)ccc4[nH]c3=O)nn2)cc1)N1CCCCC1CO (centres unmarked) [A214, 6-fluoro-3-{1-[4-(2-hydroxymethyl-piperidine-1-carbonyl)-phenyl]-1H-[1,2,3]triazol-4-yl}-1H-quinolin-2-one]
21 | 6.66 | 7.19 | COC[C@@H]1CCCN1C(=O)c1ccc(-n2cc(-c3cc4cc(F)ccc4[nH]c3=O)nn2)cc1 [A215, 6-fluoro-3-{1-[4-((S)-2-methoxymethyl-pyrrolidine-1-carbonyl)-phenyl]-1H-[1,2,3]triazol-4-yl}-1H-quinolin-2-one]
22 | 7.54 | 7.28 | O=C(c1ccc(-n2cc(-c3cc4cc(F)ccc4[nH]c3=O)nn2)cc1)N1CCOC[C@@H]1CO [A216, 6-fluoro-3-{1-[4-((S)-3-hydroxymethyl-morpholine-4-carbonyl)-phenyl]-1H-[1,2,3]triazol-4-yl}-1H-quinolin-2-one]
23 | 7.34 | 6.46 | COC[C@@H]1CC[C@@H](COC)N1C(=O)c1ccc(-n2cc(-c3cc4cc(F)ccc4[nH]c3=O)nn2)cc1 [A217, 3-{1-[4-((2S,5S)-2,5-bis-methoxymethyl-pyrrolidine-1-carbonyl)-phenyl]-1H-[1,2,3]triazol-4-yl}-6-fluoro-1H-quinolin-2-one]
24 | 7.23 | 7.19 | COC[C@H]1CC[C@H](COC)N1C(=O)c1ccc(-n2cc(-c3cc4cc(F)ccc4[nH]c3=O)nn2)cc1 [A218, 3-{1-[4-((2R,5R)-2,5-bis-methoxymethyl-pyrrolidine-1-carbonyl)-phenyl]-1H-[1,2,3]triazol-4-yl}-6-fluoro-1H-quinolin-2-one]
25 | 6.49 | 5.80 | COC[C@@H]1CC[C@@H](COC)N1C(=O)c1ccc(-n2cc(-c3cc4cc(F)c(F)cc4[nH]c3=O)nn2)cc1 [A219, 3-{1-[4-((2S,5S)-2,5-bis-methoxymethyl-pyrrolidine-1-carbonyl)-phenyl]-1H-[1,2,3]triazol-4-yl}-6,7-difluoro-1H-quinolin-2-one]
26 | 6.30 | 6.01 | COC[C@H]1CC[C@H](COC)N1C(=O)c1ccc(-n2cc(-c3cc4cc(F)c(F)cc4[nH]c3=O)nn2)cc1 [A220, 3-{1-[4-((2R,5R)-2,5-bis-methoxymethyl-pyrrolidine-1-carbonyl)-phenyl]-1H-[1,2,3]triazol-4-yl}-6,7-difluoro-1H-quinolin-2-one]
27 | 6.42 | 6.70 | O=C(c1ccc(-n2cc(-c3cc4cc(F)c(F)cc4[nH]c3=O)nn2)cc1)N1CCC(OCCN2CCOCC2)C1 (centres unmarked) [A221, 6,7-difluoro-3-(1-{4-[3-(2-morpholin-4-yl-ethoxy)-pyrrolidine-1-carbonyl]-phenyl}-1H-[1,2,3]triazol-4-yl)-1H-quinolin-2-one]
28 | 6.68 | 7.14 | Cc1cc2[nH]c(=O)c(-c3cn(-c4ccc(C(=O)N5CCN(C)CC5)cc4)nn3)cc2cc1F [A222, 6-fluoro-7-methyl-3-{1-[4-(4-methyl-piperazine-1-carbonyl)-phenyl]-1H-[1,2,3]triazol-4-yl}-1H-quinolin-2-one]
